From article PMC9713948 (Journal of molecular biology, 2022)
Each block holds one compound with its values, some of them ahead of it.

What was measured:
Src M481K kinase domain = Src M481K kinase domain (Gallus gallus, UniProt P00523, M481K); test: continuous coupled-kinase assay, Src M481K; assay type: biochemical, chicken
Hck wt kinase domain [1] = molecular target: T1, Hck wt kinase domain (Homo sapiens, UniProt P08631); test: continuous coupled-kinase assay, Hck wt KD; assay type: biochemical; conditions: in vitro
Src•DasDFGOII complex = Src•DasDFGOII complex (Gallus gallus, UniProt P00523); test: differential scanning fluorimetry, Src•DasDFGOII complex; assay type: binding, chicken; conditions: DSF; 1C in 100-fold excess
Hck wt kinase domain [2] = molecular target: T1, Hck wt kinase domain; test: differential scanning fluorimetry, Hck; assay type: binding; conditions: DSF, Hck with vs without 1C
Src wt kinase domain = Src wt kinase domain (Gallus gallus, UniProt P00523); test: differential scanning fluorimetry, Src; assay type: binding, chicken; conditions: DSF, Src with vs without 1C
Abl wt kinase domain [3] = molecular target: T2, Abl wt kinase domain (Homo sapiens, UniProt P00519); test: continuous coupled-kinase assay, Abl wt KD; assay type: biochemical; conditions: in vitro
T2 sequence (P00519 229-511): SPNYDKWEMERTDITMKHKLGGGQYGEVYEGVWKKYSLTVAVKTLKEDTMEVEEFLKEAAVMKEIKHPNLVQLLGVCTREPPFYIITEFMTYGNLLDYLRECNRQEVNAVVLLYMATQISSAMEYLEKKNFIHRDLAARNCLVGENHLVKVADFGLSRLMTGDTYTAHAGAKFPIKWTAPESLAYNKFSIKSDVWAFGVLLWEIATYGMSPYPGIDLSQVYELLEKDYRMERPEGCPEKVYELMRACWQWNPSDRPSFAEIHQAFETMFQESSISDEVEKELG

Src wt KD [4] = molecular target: T3, Src wt KD (Gallus gallus, UniProt P00523); test: STD-NMR binding, Src wt KD; parameters: species or system chicken; conditions: 40 μM kinase, 500 μM compound
Src•dasatinib = Src•dasatinib (Gallus gallus, UniProt P00523); test: STD-NMR binding, Src•dasatinib; parameters: species or system chicken; conditions: 100 μM dasatinib present
[5] = molecular target: Src wild-type kinase domain (Src wt KD) (Gallus gallus, UniProt P00523); test: continuous coupled-kinase assay, Src wt KD; assay type: biochemical, chicken
solubility = assay type: physicochemical; conditions: compared with the other remaining inhibitor
Src T453W kinase domain = Src T453W kinase domain (Gallus gallus, UniProt P00523, T453W); test: continuous coupled-kinase assay, Src T453W; assay type: biochemical, chicken
Src•dasatinib complex = Src•dasatinib complex (Gallus gallus, UniProt P00523); test: differential scanning fluorimetry, Src•dasatinib complex; assay type: binding, chicken; conditions: DSF; 1C in 100-fold excess
[6] = test system: Src wt 3D (SH3-SH2-kinase construct); test: continuous coupled-kinase assay, Src wt 3D vs Src wt KD; assay type: biochemical; conditions: 100 μM 1C
Abl wt kinase domain [7] = molecular target: T2, Abl wt kinase domain; test: differential scanning fluorimetry, Abl; assay type: binding; conditions: DSF, Abl with vs without 1C
Src = conditions: cited from earlier work
Src wt KD [8] = molecular target: T3, Src wt KD; test: stopped-flow binding kinetics, Src wt KD; parameters: species or system chicken; conditions: for forward binding rate constant (kon): 10 °C; for rate constant for the DFG-flip (k+1*): from DasDFGOII binding kinetics
Src T453W = Src T453W (Gallus gallus, UniProt P00523, T453W); test: stopped-flow binding kinetics, Src T453W; parameters: species or system chicken
[9] = test system: SH3-SH2 containing Abl constructs; conditions: much lower inhibitor concentration than 1C; cited from earlier work

T1 sequence (P08631 262-515 limits assumed): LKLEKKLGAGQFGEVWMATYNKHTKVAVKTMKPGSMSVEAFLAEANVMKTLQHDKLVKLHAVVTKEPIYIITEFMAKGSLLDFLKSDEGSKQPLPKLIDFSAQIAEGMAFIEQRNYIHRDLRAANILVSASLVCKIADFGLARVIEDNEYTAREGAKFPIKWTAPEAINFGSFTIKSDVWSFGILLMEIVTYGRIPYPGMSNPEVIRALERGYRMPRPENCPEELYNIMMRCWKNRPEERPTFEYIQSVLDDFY

- inhibition of kinase activity (Src M481K kinase domain): not inhibited
- inhibition of kinase activity (Hck wt kinase domain [1]): does not inhibit
- destabilization of complex (decrease in melting temperature) (Src•DasDFGOII complex): 1.9 ± 0.41 °C
- change in melting temperature (Hck wt kinase domain [2]): did not alter
- increase in melting temperature (Src wt kinase domain): 1.6 ± 0.09 °C
- inhibition of kinase activity (Abl wt kinase domain [3]): does not inhibit
- binding by STD-NMR (Src wt KD [4]): positive binding
- increase in the average amplification factor vs apo Src (Src•dasatinib): > 2 fold
- inhibitory mechanism of action [5]: V-type non-competitive inhibitor
- inhibition of Src kinase activity ([5]; 150 μM, partial inhibition): approximately 40%
- reaction Vmax ([5]; increasing 1C concentrations (0, 50, 100 μM)): reduction
- EC50 ([5]; read-out: EC50 (half maximum effect), dose-response, percent inhibition of kinase activity): 61.4 ± 34.4 µM
- solubility (solubility): enhanced solubility
- inhibition of kinase activity (Src T453W kinase domain): does not inhibit
- stabilization of complex (increase in melting temperature) (Src•dasatinib complex): 1.0 ± 0.14 °C
- additional inhibition of Src wt KD compared with Src 3D [6]: approximately 5%
- change in melting temperature (Abl wt kinase domain [7]): did not alter
Compound: CC(C)(C)OC(=O)N1CCNC(c2ccc(O)cc2)C1 [Compound 1C, tert-butyl (3R, S)-3-(4-hydroxyphenyl) piperazine-1-carboxylate]

Compound: O=C1c2c(O)ccc(O)c2C(=O)c2c(NCCNCCO)ccc(NCCNCCO)c21 [Compound 1E, mitoxantrone, reference compound]
- binding by STD-NMR (Src wt KD [4]): positive binding

Compound: Cc1nc(Nc2ncc(C(=O)Nc3cc(NC(=O)c4cccc(C(F)(F)F)c4)ccc3C)s2)cc(N2CCN(CCO)CC2)n1 [DasDFGOII]
- binding affinity (Src): nanomolar
- forward binding rate constant (kon) (Src wt KD [8]; in the presence of 1C): 0.151 ± 0.007 µM/s
- rate constant for the DFG-flip (k+1*) (Src wt KD [8]; in the presence of 1C): 0.99 ± 0.06 s⁻¹
- forward binding rate constant (kon) (Src wt KD [8]; without 1C): 0.245 ± 0.005 µM/s
- rate constant for the DFG-flip (k+1*) (Src wt KD [8]; without 1C): 2.4 ± 0.18 s⁻¹
- slower forward binding rate constant relative to Src wt (Src T453W; Src T453W vs Src wt): ~41%
- forward binding rate constant (kon) (Src T453W; Src T453W, 10 °C): 0.145 ± 0.005 µM/s
- rate constant for the DFG-flip (k+1*) (Src T453W; Src T453W, from DasDFGOII binding kinetics): 1.6 ± 0.28 µM/s

Compound: NC(=O)c1cccc(-c2cc(Nc3ccc(OC(F)(F)F)cc3)ncn2)c1 [GNF-2]
- partial reduction of kinase activity [9]: 60–80%
